# Several values for one entry are separate records, joined by “and”; a condition that tells them apart may be missing. Equal entries are not always repeated.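 1) Cells in 96-well plates. 2) Compound, 48 h, 5 concentrations. 3) Linear interpolation between surrounding doses. 4) Unreached endpoint = highest concentration. At the GI50, growth is halved. TGI denotes the concentration required for complete inhibition of growth.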
# What was measured:
# Assay in all cases: NCI anticancer screen, dose series, 48 h
# [1] = tested on: KM12 colon
# [2] = tested on: SK-OV-3 ovarian
# [3] = tested on: SK-MEL-28 melanoma
# [4] = tested on: MALME-3M melanoma
# [5] = tested on: IGROV1 ovarian
# [6] = tested on: SNB-75 CNS
# [7] = tested on: CAKI-1 renal
# [8] = tested on: HL-60(TB) leukemia
# [9] = tested on: SF-539 CNS
# [10] = tested on: ACHN renal
Compound,TGI [1],TGI [2],TGI [3],TGI [4],TGI [5],TGI [6],TGI [7],TGI [8],TGI [9],GI50 [1],GI50 [2],GI50 [10],TGI [10],GI50 [3],GI50 [4] [nM],GI50 [5] [µM],GI50 [6],GI50 [7] [nM],GI50 [8],GI50 [9]
N=c1nnc(=O)c2c(s1)-n1ncc(C(=O)O)c1NN2,> 100 µM,> 100 µM,> 100 µM,> 100 µM,> 100 µM,> 100 µM,> 100 µM,> 100 µM,> 100 µM,,,,,,,,,,,
CC(C)c1ccc(C(=O)Nc2sc3c(c2C#N)CCC(=O)C3)cc1,7.83 µM,8.15 µM,9.84 µM,3.82 µM,13.1 µM,5.38 µM,1.95 µM,,1.41 µM,0.413 µM,2390 nM,330 nM,1.06 µM,0.754 µM,1170,0.458,601 nM,343,413 nM,0.337 µM
CN(C)C(N)=NC#N,> 100 µM,> 100 µM,> 100 µM,> 100 µM,> 100 µM,> 100 µM,> 100 µM,> 100 µM,> 100 µM,,,,> 100 µM,,,,,,,
C(CCC[Te][Te]CCCCCCOC1CCCCO1)CCOC1CCCCO1 (centres undefined),28.9 µM,80.7 µM,27.4 µM,20.5 µM,48 µM,33.7 µM,82.6 µM,37.9 µM,32.1 µM,,,,22.7 µM,,,,,,,
COCCOC(=O)NC(=O)Nc1ccc(/C(=N/O)c2ccc(Cl)cc2)cc1,29.1 µM,25.1 µM,48 µM,33.1 µM,> 69 µM,7.94 µM,> 100 µM,0.137 µM,0.341 µM,0.0996 µM,118 nM,186 nM,48.8 µM,11.5 µM,11900,0.269,129 nM,,78.3 nM,0.121 µM
O=C(Nc1ccc(F)cc1)c1c(NC(=O)C(F)(F)F)sc2c1CCCCC2,9.23 µM,6.37 µM,13.9 µM,5.72 µM,15.5 µM,5.57 µM,5.17 µM,8.32 µM,11.8 µM,1.96 µM,2050 nM,2110 nM,7.93 µM,2.11 µM,1810,2.99,1340 nM,1350,2680 nM,2.04 µM
O=S(=O)(NCC1CCC(CNc2ccc(Cl)cc2)CC1)c1ccc(-c2ccccc2)cc1 (centres undefined),> 50 µM,> 50 µM,> 50 µM,,> 50 µM,,> 50 µM,> 50 µM,> 50 µM,> 50 µM,> 50000 nM,18300 nM,> 50 µM,> 50 µM,,> 50,,25600,> 50000 nM,> 50 µM
CN1CCCN(C)C1c1cc([N+](=O)[O-])ccc1O,> 100 µM,> 100 µM,82.3 µM,63.7 µM,> 100 µM,> 100 µM,> 100 µM,61.4 µM,74.9 µM,,,,64.3 µM,,,,,,,
NC1CCN(c2nc(Nc3cccc(C(F)(F)F)c3)c3c(=O)[nH]ccc3n2)CC1,,2.39 µM,3.32 µM,3.83 µM,,3.19 µM,1.88 µM,2.41 µM,3.26 µM,,1080 nM,944 nM,2.21 µM,1.82 µM,1880,,1770 nM,444,603 nM,1.77 µM
Clc1ccc2[nH]cc(-c3nc(-c4c[nH]c5ncccc45)cs3)c2c1,12.2 µM,39 µM,20.1 µM,19 µM,28.6 µM,35.3 µM,11.2 µM,45.6 µM,21.2 µM,3.17 µM,6160 nM,2820 nM,> 100 µM,6.43 µM,5170,3.04,3250 nM,1730,2890 nM,4.97 µM
CCC(=O)C(C)C1=Nc2nnc(CCCCCCCc3nnc4n3C(=O)C(C(C)C(=O)CC)=N4)n2C1=O (centres undefined),> 100 µM,> 100 µM,> 100 µM,> 100 µM,> 100 µM,> 100 µM,> 100 µM,> 100 µM,> 100 µM,,,,> 100 µM,,,,,,,
C(=N\OCc1ccccc1)/c1ncccc1C1OCCO1,> 100 µM,> 100 µM,> 100 µM,> 100 µM,> 100 µM,> 100 µM,> 100 µM,> 100 µM,> 100 µM,,,,> 100 µM,,,,,,,
CCOC(=O)c1[nH]c(-c2ccc(Cl)cc2)cc1-c1cccnc1,> 100 µM,> 100 µM,> 100 µM,,> 100 µM,> 100 µM,,,7.14 µM,0.595 µM,1050 nM,714 nM,> 100 µM,0.982 µM,,1.37,738 nM,,,0.423 µM
COC(=O)c1c2c(c(C)[n+]([O-])c1C)C(=O)C=C(NCc1ccc(F)c(F)c1)C2=O,1.71 µM,4.06 µM,2.43 µM,0.301 µM,1.68 µM,2.99 µM,2.13 µM,1.02 µM,1.67 µM,0.28 µM,1860 nM,572 nM,2.01 µM,0.84 µM,139,0.36,1630 nM,313,302 nM,0.487 µM
NNc1cccc(/C=C/c2ccccc2)cc1=O,> 100 µM,> 100 µM,> 100 µM,,46.1 µM,> 100 µM,8.17 µM,> 100 µM,> 100 µM,8.33 µM,19800 nM,7270 nM,> 100 µM,35.9 µM,,4.26,31000 nM,2600,3970 nM,23 µM
CCOC(=O)C(CO)c1nc2c([nH]c1=O)c(=O)n(C)c(=O)n2C (centres undefined),> 100 µM,,> 100 µM,> 100 µM,> 100 µM,,> 100 µM,> 100 µM,> 100 µM,,,,> 100 µM,,,,,,,
CCCCCCCC(=O)OC(CBr)COC(=O)C(C)(C)C (centres undefined),> 100 µM,> 100 µM,> 100 µM,> 100 µM,> 100 µM,68.8 µM,> 100 µM,> 100 µM,,,,,> 100 µM,,,,,,,
O=c1cc2ccccc2nn1Cc1ccccc1Cl,> 100 µM,> 100 µM,> 100 µM,> 100 µM,> 100 µM,93.8 µM,> 100 µM,,> 100 µM,,,,> 100 µM,,,,,,,
Cc1c(C(=O)NCCO)[n+](=O)c2cc(Cl)ccc2n1[O-],> 100 µM,> 100 µM,> 100 µM,> 100 µM,> 100 µM,> 100 µM,,> 100 µM,> 100 µM,,,,> 100 µM,,,,,,,

Compound,TGI [1],TGI [2],TGI [3],TGI [4],TGI [5],TGI [6],TGI [7],TGI [8],TGI [9],GI50 [1],GI50 [2],GI50 [10],TGI [10],GI50 [3],GI50 [4] [nM],GI50 [5] [µM],GI50 [6],GI50 [7] [nM],GI50 [8],GI50 [9]
Cc1ccc(S(=O)(=O)NC(=O)NC23CC4CC(CC(F)(C4)C2)C3)cc1,> 100 µM,> 100 µM,> 100 µM,> 100 µM,> 100 µM,> 100 µM,,> 100 µM,> 100 µM,,,,> 100 µM,,,,,,,
ClC(Cl)c1nc(-c2cccnc2)n2nc(-c3ccccc3)cc2n1,,5.02 µM,3.51 µM,3.25 µM,5.23 µM,,5.51 µM,7.19 µM,,,1780 nM,1370 nM,4.94 µM,1.71 µM,1590,1.63,,1730,2180 nM,
O=C(O)/C(=C/c1c(O)ccc2ccccc12)c1csc(-c2nc(/C(=C\c3c(O)ccc4ccccc34)C(=O)O)cs2)n1,53.2 µM,26.8 µM,32.1 µM,3.95 µM,24.1 µM,23.2 µM,,26.4 µM,19.1 µM,,,,18.8 µM,,,,,,,
Nc1ccc(S(=O)(=O)C23CC4CC(CC(C4)C2)C3)cc1,> 100 µM,> 100 µM,> 100 µM,> 100 µM,> 100 µM,,> 100 µM,> 100 µM,> 100 µM,,,,> 100 µM,,,,,,,
O=[N+]([O-])c1ccc(N/N=C/c2c(O)ccc3ccccc23)nc1,> 100 µM,> 100 µM,> 100 µM,> 100 µM,> 100 µM,> 100 µM,> 100 µM,,> 100 µM,8.73 µM,> 100000 nM,775 nM,> 100 µM,> 100 µM,27800,7.48,> 100000 nM,518,,11.1 µM
COc1ccc2c(c1OC)C1=C(C2=O)c2cc3c(cc2CCN1)OCO3,78 µM,,> 100 µM,> 100 µM,> 100 µM,5.9 µM,83 µM,53.9 µM,61.2 µM,,,,> 100 µM,,,,,,,
COc1cc(/C=C2\CC3C4CC=C5C[C@@H](OC(C)=O)CC[C@]5(C)C4CC[C@]3(C)C2=O)ccc1OCCCn1ccnc1 (some centres undefined),16.2 µM,,> 50 µM,,46.8 µM,,27.3 µM,21.8 µM,14.2 µM,8.75 µM,,9810 nM,21 µM,16 µM,,13.7,,5810,11200 nM,6.89 µM
COc1cc2noc(-c3ccccc3)c2cc1OC,> 100 µM,> 100 µM,,> 100 µM,> 100 µM,35.4 µM,92.2 µM,> 100 µM,> 100 µM,,,,> 100 µM,,,,,,,
COC1OC(CO)C(O)C(O)C1Br (centres undefined),> 100 µM,,> 100 µM,> 100 µM,> 100 µM,,> 100 µM,> 100 µM,> 100 µM,,,,> 100 µM,,,,,,,
Cn1c(=O)nc2n(-c3cccc(F)c3)c3ccccc3nc-2c1=O,> 100 µM,> 100 µM,,28.2 µM,62.5 µM,78.5 µM,96.9 µM,,66 µM,,,,68.2 µM,,,,,,,
Nc1ccc2c(c1)NCCN2,> 100 µM,,> 100 µM,> 100 µM,> 100 µM,> 100 µM,> 100 µM,89.4 µM,> 100 µM,,,,> 100 µM,,,,,,,
CN1c2ccccc2N(C)C2C1N(C)c1ccccc1N2C (centres undefined),> 100 µM,,17.6 µM,76.4 µM,> 100 µM,71.1 µM,> 100 µM,7 µM,45.8 µM,,,,> 100 µM,,,,,,,
Nc1nnc2cc(Cl)ccc2n1,> 100 µM,> 100 µM,> 100 µM,> 100 µM,> 100 µM,> 100 µM,> 100 µM,,> 100 µM,> 100 µM,> 100000 nM,> 100000 nM,> 100 µM,> 100 µM,> 100000,34.3,9060 nM,> 100000,,> 100 µM
CCOC(=O)C(Cc1c[nH]c2ccc(N(CCCl)CCCl)cc12)(NC(C)=O)C(=O)OCC,83.5 µM and 36.3 µM,99.4 µM and 131 µM,238 µM,28.3 µM,102 µM,67.9 µM and 57 µM,,12.1 µM and 9.89 µM,12.6 µM and 30.3 µM,22.1 µM and 14.9 µM,22600 nM and 17500 nM,917 nM and 342 nM,17.3 µM and 8.2 µM,31.6 µM and 23 µM,11100,19.4,11500 nM and 6530 nM,,3290 nM and 1430 nM,3.18 µM and 6.88 µM
COc1cc2c3c(c1)c1cc(OC)c(OC)cc1c[n+]3CC2,19.3 µM and 69.9 µM,> 100 µM,50 µM and > 100 µM,7.93 µM and 13 µM,50 µM and > 100 µM,,50 µM and > 100 µM,> 100 µM,50 µM,5.69 µM,89500 nM,> 100000 nM,> 100 µM,32.8 µM,2710,,,> 100000,> 100000 nM,
CCOC(=O)C1(Cc2ccccc2)CCCCCN1 (centres undefined),,> 100 µM,> 100 µM,> 100 µM,> 100 µM,92.6 µM,> 100 µM,> 100 µM,,,,,> 100 µM,,,,,,,
COc1c(C(=O)O)oc2c(OC)cccc12,> 100 µM,> 100 µM,> 100 µM,> 100 µM,> 100 µM,> 100 µM,,> 100 µM,> 100 µM,,,,> 100 µM,,,,,,,
O=C1C[C@@H]2C(COC(=O)c3ccccc3)N(OCc3ccccc3)C[C@@H]2O1 (some centres undefined),> 100 µM,> 100 µM,> 100 µM,> 100 µM,> 100 µM,> 100 µM,,> 100 µM,> 100 µM,,,,> 100 µM,,,,,,,
